The values that follow come from ChEMBL document CHEMBL1201862, “PubChem BioAssay data set” (2004).

Each structure is given as a SMILES string.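 Five concentrations, 48 hours, 96-well plates. Here, GI50 denotes the concentration required for 50% inhibition of growth.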 Calls of active or inactive are those of the source. Rule as the data show it: active = GI50 up to about 1.1 µM and inactive = higher. Bounds are passed on as bounds.

Among the test systems are NCI-H460; NCI-H23; HL-60; SNB-75; HOP-62; M19-MEL; 786-0; LOX IMVI; SK-MEL-2; HCC 2998; HT-29; NCI-H522; RPMI-8226; HCT-116; NCI/ADR-RES; MDA-N; PC-3; T47D; MCF7; MDA-MB-231.
Holding throughout (assay): DTP human tumour cell line panel, 48 h

With `CCCC(=O)c1ccc(=O)n(C)c1`, the GI50 with NCI-H460, with NCI-H23, in the assay with HL-60, in the assay with SNB-75, with HOP-62 and in the assay on M19-MEL was > 100 µM (inactive) throughout. Also, the GI50 in the assay with 786-0, in the assay with LOX IMVI, with SK-MEL-2, in the assay with HCC 2998, with HT-29 and in the assay on NCI-H522 was > 100 µM (inactive) in each case. Further, the GI50 in the assay on RPMI-8226 and in the assay with HCT-116 was > 100 µM (inactive) throughout.
On to `CC(=O)OCC1OC(NC(=S)N/N=C2\CC(c3ccccc3)Oc3ccccc32)C(OC(C)=O)C(OC(C)=O)C1OC(C)=O` (stereo not drawn), for which the GI50 in the assay on NCI-H460, in the assay with NCI-H23, with HL-60, in the assay on SNB-75, in the assay on HOP-62 and with M19-MEL was > 100 µM (inactive) throughout. Besides, the GI50 in the assay with 786-0, in the assay on LOX IMVI, in the assay with HCC 2998, in the assay on HT-29, in the assay with NCI-H522 and in the assay with RPMI-8226 was > 100 µM (inactive) each time. Moreover, the GI50 in the assay on HCT-116 was > 100 µM (inactive).
For the molecule `O=C(CC(=O)C(=O)CC(=O)OCc1ccccc1)OCc1ccccc1`, the GI50 in the assay on NCI-H23 was 53.2 µM (inactive); in the assay with HL-60 it was 63.4 µM (inactive); with SNB-75, 61.5 µM (inactive); with HOP-62, 56.2 µM (inactive); in the assay on M19-MEL, > 100 µM (inactive); in the assay on 786-0, > 100 µM (inactive). For the same molecule, the GI50 is > 100 µM (inactive) in the assay with SK-MEL-2; > 100 µM (inactive) with HCC 2998; > 100 µM (inactive) in the assay on HT-29; 31.3 µM (inactive) in the assay on NCI-H522; 45.8 µM (inactive) in the assay with RPMI-8226; 44.6 µM (inactive) with HCT-116.
On to `CCCS(=O)(=O)/C(=C(\c1ccc(Br)cc1)S(=O)(=O)CCC)c1ccc(Br)cc1`, for which the GI50 in the assay on NCI-H460, in the assay on NCI-H23, with HL-60, in the assay on SNB-75, in the assay with HOP-62 and in the assay on M19-MEL was > 10 µM (inactive) throughout. Further, the GI50 in the assay on 786-0, with LOX IMVI, with SK-MEL-2, with HCC 2998, in the assay with HT-29 and in the assay with NCI-H522 was > 10 µM (inactive) each time. The GI50 in the assay with RPMI-8226 and in the assay with HCT-116 was > 10 µM (inactive) throughout.
As to `CCOC(=O)C1=C(C)N(Cc2ccccc2)C(C)=C(C(=O)OCC)C1c1ccccc1O`, the GI50 was 42.3 µM (inactive) with NCI-H460; 24 µM (inactive) in the assay with NCI-H23; 26.6 µM (inactive) in the assay on HL-60; 27.5 µM (inactive) with SNB-75; 31.5 µM (inactive) in the assay on HOP-62; 27.4 µM (inactive) in the assay with M19-MEL. Also, the GI50 is 44.6 µM (inactive) with 786-0; 17.9 µM (inactive) with LOX IMVI; 20 µM (inactive) in the assay on SK-MEL-2; 44.8 µM (inactive) in the assay on HCC 2998; 41.4 µM (inactive) with HT-29; 25.6 µM (inactive) with NCI-H522. Moreover, in the assay on HCT-116, the GI50 was 29.4 µM (inactive).
For the molecule `O=C1c2ccccc2C2(Br)C(=O)c3ccccc3C12` (stereo not drawn), the GI50 in the assay with NCI-H460, in the assay on NCI-H23, in the assay with HL-60, in the assay on SNB-75, with HOP-62 and in the assay on M19-MEL was > 100 µM (inactive) in each case. Moreover, the GI50 with 786-0 was > 100 µM (inactive); in the assay with LOX IMVI, 11.1 µM (inactive); in the assay with SK-MEL-2, > 100 µM (inactive); with HCC 2998, > 100 µM (inactive); with HT-29, > 100 µM (inactive); in the assay on NCI-H522, > 100 µM (inactive). Moreover, the GI50 with RPMI-8226 was > 100 µM (inactive).
On to `COc1cc(C(=O)C/C(CCC(=O)Nc2ccccc2[N+](=O)[O-])=N\NC(=O)CC#N)ccc1O`, for which the GI50 in the assay on NCI-H460 was > 100 µM (inactive); in the assay on NCI-H23, > 100 µM (inactive); in the assay on HL-60, > 100 µM (inactive); with SNB-75, 49.1 µM (inactive); in the assay with HOP-62, > 100 µM (inactive); with M19-MEL it was > 100 µM (inactive). Besides, the GI50 in the assay with 786-0, in the assay with LOX IMVI, in the assay on SK-MEL-2, in the assay on HCC 2998, in the assay on HT-29 and in the assay with NCI-H522 was > 100 µM (inactive) throughout. Also, in the assay on RPMI-8226, the GI50 is > 100 µM (inactive).
With `CCN(CC)CCNc1ccc2ncn3c4ccc(OC)cc4c(=O)c1c23`, the GI50 was 0.885 µM (active) in the assay with NCI/ADR-RES; 0.646 µM (active) with NCI-H460; 4.79 µM (inactive) in the assay on NCI-H23; 3.49 µM (inactive) in the assay on HL-60; 7.08 µM (inactive) in the assay on SNB-75; 5.21 µM (inactive) in the assay with HOP-62. For the same molecule, the GI50 in the assay with M19-MEL was 3.73 µM (inactive); with MDA-N, 5.18 µM (inactive); with PC-3, 3.83 µM (inactive); with 786-0, 2.22 µM (inactive); in the assay on LOX IMVI, 1.51 µM (inactive); in the assay with SK-MEL-2, 9.25 µM (inactive). The GI50 was 20 µM (inactive) with T47D; 57 µM (inactive) with MCF7; 2.78 µM (inactive) in the assay with HCC 2998; 1.28 µM (inactive) in the assay on HT-29; 2.32 µM (inactive) with NCI-H522; 1.21 µM (inactive) with RPMI-8226. In the assay with HCT-116, the GI50 was 0.592 µM (active).
Turning to `COc1cc(Br)c(/C=N\c2cccc3cc(OC)c(OC)cc23)cc1OC`, the GI50 in the assay on NCI-H460 was > 100 µM (inactive); with NCI-H23 it was 39.7 µM (inactive); in the assay with HL-60 it was 11.3 µM (inactive); with SNB-75, 16.8 µM (inactive); with HOP-62, > 100 µM (inactive); with M19-MEL it was 41.6 µM (inactive). In addition, the GI50 with 786-0 is 22.6 µM (inactive); with LOX IMVI it was 35.3 µM (inactive); with HCC 2998, > 100 µM (inactive); in the assay with HT-29 it was 31.9 µM (inactive); in the assay with NCI-H522, > 100 µM (inactive); with RPMI-8226 it was 23.9 µM (inactive). For the same molecule, in the assay with HCT-116, the GI50 was 34.3 µM (inactive).
For the molecule `O=C1CC(C[C@H](O)C2CCCCC2O)CC(=O)N1Cc1ccccc1` (stereo partly drawn), the GI50 with NCI-H460, in the assay with NCI-H23, in the assay with HL-60, in the assay with SNB-75, in the assay on HOP-62 and in the assay on M19-MEL was > 100 µM (inactive) throughout. Besides, the GI50 with 786-0, in the assay on LOX IMVI, with SK-MEL-2, with HCC 2998, in the assay with HT-29 and in the assay on NCI-H522 was > 100 µM (inactive) in each case. Also, the GI50 in the assay on HCT-116 was > 100 µM (inactive).
With `COC(=O)C1(C(C)C)CCc2c(OC)ccc(OC)c2C1=O` (stereo not drawn), the GI50 with NCI-H460, in the assay on HL-60, in the assay on HOP-62, in the assay on M19-MEL, in the assay with 786-0 and in the assay with LOX IMVI was > 100 µM (inactive) throughout. The GI50 in the assay with SK-MEL-2 is > 100 µM (inactive); in the assay on HCC 2998, > 100 µM (inactive); in the assay with HT-29, > 100 µM (inactive); in the assay with NCI-H522, > 100 µM (inactive); with RPMI-8226, 93.3 µM (inactive); in the assay on HCT-116, > 100 µM (inactive).
For the molecule `O=C1C(Cl)=C(N2CCN(CCOCCO)CC2)C(=O)c2ccccc21`, the GI50 was 12.2 µM (inactive) in the assay with NCI/ADR-RES; 17.9 µM (inactive) with NCI-H460; 13.6 µM (inactive) with NCI-H23; 1.67 µM (inactive) with HL-60; 14.2 µM (inactive) with SNB-75; 3.82 µM (inactive) in the assay on M19-MEL. The GI50 in the assay on MDA-N is 2.18 µM (inactive); with PC-3, 18 µM (inactive); with 786-0 it was 11.7 µM (inactive); in the assay with LOX IMVI, 6.4 µM (inactive); with SK-MEL-2 it was 8.89 µM (inactive); with T47D it was 1.85 µM (inactive). Also, the GI50 with MCF7 was 3.56 µM (inactive); with HCC 2998, 18.2 µM (inactive); with MDA-MB-231, 4.43 µM (inactive); with HT-29, 16 µM (inactive); with NCI-H522, 1.77 µM (inactive); in the assay with RPMI-8226 it was 3.45 µM (inactive). Also, in the assay with HCT-116, the GI50 was 3.97 µM (inactive).
On to `COc1cc(C2c3cc4c(cc3[C@@H](Nc3ccc5c(c3)OCCO5)C3COC(=O)[C@H]23)OCO4)cc(OC)c1O` (stereo partly drawn), for which the GI50 is 1.07 µM (active) with NCI/ADR-RES; 0.0156 µM (active) in the assay with NCI-H460; 0.207 µM (active) with NCI-H23; 0.105 µM (active) with HL-60; 0.581 µM (active) in the assay on SNB-75; 0.22 µM (active) in the assay on HOP-62. The GI50 in the assay on M19-MEL is 0.622 µM (active); in the assay on PC-3 it was 0.918 µM (active); in the assay with 786-0, 0.199 µM (active); in the assay with LOX IMVI it was 0.587 µM (active); in the assay on SK-MEL-2, 2.19 µM (inactive); with MCF7, 0.802 µM (active). Further, the GI50 with HCC 2998 is 1.1 µM (active); in the assay with MDA-MB-231, 16.4 µM (inactive); in the assay on HT-29, 0.555 µM (active); with NCI-H522 it was 0.301 µM (active); in the assay on RPMI-8226, 0.532 µM (active); in the assay on HCT-116 it was 0.194 µM (active).
On to `COc1cc2c3c(c1OC)C1(C=CC(=O)C=C1)C[C@H]3N(C)CC2` [PRONUCIFERINE], for which the GI50 in the assay with NCI-H460, with NCI-H23, in the assay with SNB-75, in the assay on M19-MEL, in the assay with 786-0 and in the assay with LOX IMVI was > 100 µM (inactive) in each case. The GI50 was > 100 µM (inactive) in the assay on SK-MEL-2; > 100 µM (inactive) in the assay with HCC 2998; > 100 µM (inactive) with HT-29; 74.3 µM (inactive) in the assay on NCI-H522; > 100 µM (inactive) in the assay on RPMI-8226; > 100 µM (inactive) with HCT-116.
